Patent publication US6737383B1, “Herbicidal oxadiazolidines” (priority 1999, dated 2004)

What was measured:
soybean = experiment: Test B pre/postemergence soybean; type: in vivo, Glycine max
Outline: (§1)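 Response is a visual 0-to-10 score relative to untreated plants, where 0 means no effect and 10 means complete control, taken twelve to sixteen days after application. Treatments went onto soil at planting and onto foliage of 1- to 4-leaf plants, using a surfactant-containing non-phytotoxic solvent.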

bedstraw = experiment: Test B pre/postemergence bedstraw; type: in vivo, Galium aparine
Outline: as §1

rice = experiment: Test B flood test rice; type: in vivo, Oryza sativa
Outline: (§2)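 Flood test on plants grown to the 2-leaf stage; treated plants kept in greenhouse twelve to sixteen days, then visually rated against controls on a 0 (no effect) to 10 (complete control) scale.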

cocklebur = experiment: Test B pre/postemergence cocklebur; type: in vivo, Xanthium strumarium
Outline: as §1

pigweed = experiment: Test B pre/postemergence pigweed; type: in vivo, Amaranthus retroflexus
Outline: as §1

corn = experiment: Test B pre/postemergence corn; type: in vivo, Zea mays
Outline: as §1

duck salad = experiment: Test B flood test duck salad; type: in vivo, Heteranthera limosa
Outline: as §2

sugar beet = experiment: Test B pre/postemergence sugar beet; type: in vivo, Beta vulgaris
Outline: as §1

wheat = experiment: Test B pre/postemergence wheat; type: in vivo, Triticum aestivum
Outline: as §1

purple nutsedge = experiment: Test B pre/postemergence purple nutsedge; type: in vivo, Cyperus rotundus
Outline: as §1

smallflower flatsedge = experiment: Test B flood test smallflower flatsedge; type: in vivo, Cyperus difformis
Outline: as §2

surinam grass = experiment: Test B pre/postemergence surinam grass; type: in vivo, Brachiaria decumbens
Outline: as §1

rape = experiment: Test B pre/postemergence rape; type: in vivo, Brassica napus
Outline: as §1

wild oat = experiment: Test B pre/postemergence wild oat; type: in vivo, Avena fatua
Outline: as §1

giant foxtail = experiment: Test B pre/postemergence giant foxtail; type: in vivo, Setaria faberii
Outline: as §1

velvetleaf = experiment: Test B pre/postemergence velvetleaf; type: in vivo, Abutilon theophrasti
Outline: as §1

[1] = Postemergence, Rate 62 g/ha, scale of 0 to 10, 0 is no effect, 10 is complete control
[2] = Postemergence, Rate 125 g/ha, scale 0 to 10, 0 is no effect, 10 is complete control
[3] = Postemergence, Rate 500 g/ha, scale 0 to 10, 0 is no effect, 10 is complete control
[4] = Preemergence, Rate 62 g/ha, scale of 0 to 10 where 0 is no effect and 10 is complete control
[5] = Preemergence, Rate 125 g/ha, scale 0 to 10, 0 is no effect, 10 is complete control
[6] = Preemergence, Rate 500 g/ha, scale of 0 to 10 where 0 is no effect and 10 is complete control
[7] = Rate 250 g/ha, Postemergence, scale of 0 to 10 where 0 is no effect and 10 is complete control
[8] = Rate 62 g/ha, flood test species, Pre-emergence, visual evaluation after twelve to sixteen days
[9] = Rate 125 g/ha, under heading Pre-emergence, flood test species, visual evaluation after twelve to sixteen days
[10] = Rate 250 g/ha, Pre-emergence (flood test species), scale 0 to 10, 0 is no effect, 10 is complete control
[11] = Rate 500 g/ha, Pre-emergence section of Table B, 0 to 10 scale (0 no effect, 10 complete control)

Compound: CC(C)N(C(=O)n1oc(=O)n(CCC2OCCO2)c1=O)c1ccc(Cl)cc1 [Compound 531]
- Soybean plant response rating (soybean; [1]): 3
- Soybean plant response rating (soybean; [2]): 3
- Plant response rating, Soybean (soybean; [3]): 6
- Plant response rating, Soybean (soybean; [4]): 0
- Soybean plant response rating (soybean; [5]): 0
- Soybean plant response rating (0 to 10 scale) (soybean; Preemergence, Rate 250 g/ha): 0
- Soybean plant response rating (soybean; [6]): 0
- Plant response rating, Soybean (soybean; [7]): 6
- Bedstraw plant response rating (bedstraw; [1]): 0
- Bedstraw plant response rating (bedstraw; [2]): 0
- Plant response rating, Bedstraw (bedstraw; [3]): 3
- Plant response rating, Bedstraw (bedstraw; [4]): 0
- Bedstraw plant response rating (0 to 10 scale) (bedstraw; Preemergence, Rate 250 g/ha): 0
- Plant response rating, Bedstraw (bedstraw; [7]): 0
- Plant response rating, Rice (0 to 10 scale, 0 is no effect, 10 is complete control) (rice; [8]): 0
- Rice plant response rating (0 to 10 scale, 0 is no effect, 10 is complete control) (rice; [9]): 0
- Rice plant response rating (rice; [10]): 0
- Rice plant response rating (rice; [11]): 0
- Cocklebur plant response rating (cocklebur; [1]): 0
- Cocklebur plant response rating (cocklebur; [2]): 0
- Plant response rating, Cocklebur (cocklebur; [3]): 5
- Plant response rating, Cocklebur (cocklebur; [4]): 0
- Cocklebur plant response rating (cocklebur; [5]): 0
- Cocklebur plant response rating (0 to 10 scale) (cocklebur; Preemergence, Rate 250 g/ha): 0
- Cocklebur plant response rating (cocklebur; [6]): 0
- Plant response rating, Cocklebur (cocklebur; [7]): 2
- Redroot pigweed plant response rating (pigweed; [1]): 0
- Redroot pigweed plant response rating (pigweed; [2]): 0
- Plant response rating, Redroot pigweed (pigweed; [3]): 0
- Plant response rating, Redroot pigweed (pigweed; [4]): 0
- Redroot pigweed plant response rating (pigweed; [5]): 0
- Redroot pigweed plant response rating (0 to 10 scale) (pigweed; Preemergence, Rate 250 g/ha): 0
- Plant response rating, Redroot pigweed (pigweed; [7]): 0
- Corn plant response rating (corn; [1]): 0
- Corn plant response rating (corn; [2]): 0
- Plant response rating, Corn (corn; [3]): 0
- Plant response rating, Corn (corn; [4]): 0
- Corn plant response rating (corn; [5]): 0
- Corn plant response rating (0 to 10 scale) (corn; Preemergence, Rate 250 g/ha): 0
- Corn plant response rating (corn; [6]): 0
- Plant response rating, Corn (corn; [7]): 0
- Plant response rating, Ducksalad (0 to 10 scale, 0 is no effect, 10 is complete control) (duck salad; [8]): 0
- Ducksalad plant response rating (0 to 10 scale, 0 is no effect, 10 is complete control) (duck salad; [9]): 0
- Ducksalad plant response rating (duck salad; [10]): 0
- Ducksalad plant response rating (duck salad; [11]): 0
- Sugarbeets plant response rating (sugar beet; [1]): 0
- Sugarbeets plant response rating (sugar beet; [2]): 0
- Plant response rating, Sugarbeets (sugar beet; [3]): 6
- Plant response rating, Sugarbeets (sugar beet; [4]): 0
- Sugarbeets plant response rating (sugar beet; [5]): 4
- Sugarbeets plant response rating (0 to 10 scale) (sugar beet; Preemergence, Rate 250 g/ha): 3
- Plant response rating, Sugarbeets (sugar beet; [7]): 0
- Wheat plant response rating (wheat; [1]): 0
- Wheat plant response rating (wheat; [2]): 0
- Plant response rating, Wheat (wheat; [3]): 0
- Plant response rating, Wheat (wheat; [4]): 0
- Wheat plant response rating (wheat; [5]): 0
- Wheat plant response rating (0 to 10 scale) (wheat; Preemergence, Rate 250 g/ha): 0
- Plant response rating, Wheat (wheat; [7]): 0
- Nutsedge plant response rating (purple nutsedge; [1]): 0
- Nutsedge plant response rating (purple nutsedge; [2]): 0
- Plant response rating, Nutsedge (purple nutsedge; [3]): 3
- Plant response rating, Nutsedge (purple nutsedge; [4]): 0
- Nutsedge plant response rating (purple nutsedge; [5]): 0
- Nutsedge plant response rating (0 to 10 scale) (purple nutsedge; Preemergence, Rate 250 g/ha): 0
- Nutsedge plant response rating (purple nutsedge; [6]): 0
- Plant response rating, Nutsedge (purple nutsedge; [7]): 0
- Plant response rating, S. Flatsedge (0 to 10 scale, 0 is no effect, 10 is complete control) (smallflower flatsedge; [8]): 0
- S. Flatsedge plant response rating (0 to 10 scale, 0 is no effect, 10 is complete control) (smallflower flatsedge; [9]): 0
- S. Flatsedge plant response rating (smallflower flatsedge; [10]): 0
- S. Flatsedge plant response rating (smallflower flatsedge; [11]): 0
- B. signalgrass plant response rating (surinam grass; [1]): 0
- B. signalgrass plant response rating (surinam grass; [2]): 0
- Plant response rating, B. signalgrass (surinam grass; [3]): 4
- Plant response rating, B. signalgrass (surinam grass; [4]): 2
- B. signalgrass plant response rating (surinam grass; [5]): 2
- B. signalgrass plant response rating (0 to 10 scale, 0 is no effect, 10 is complete control) (surinam grass; Preemergence, Rate 250 g/ha): 2
- Plant response rating, B. signalgrass (surinam grass; [7]): 0
- Rape plant response rating (rape; [1]): 0
- Rape plant response rating (rape; [2]): 0
- Plant response rating, Rape (rape; [3]): 2
- Plant response rating, Rape (rape; [4]): 0
- Rape plant response rating (rape; [5]): 0
- Rape plant response rating (0 to 10 scale) (rape; Preemergence, Rate 250 g/ha): 0
- Plant response rating, Rape (rape; [7]): 0
- Wild oats plant response rating (wild oat; [1]): 0
- Wild oats plant response rating (wild oat; [2]): 0
- Plant response rating, Wild oats (wild oat; [3]): 0
- Plant response rating, Wild oats (wild oat; [4]): 0
- Wild oats plant response rating (wild oat; [5]): 0
- Wild oats plant response rating (0 to 10 scale) (wild oat; Preemergence, Rate 250 g/ha): 0
- Plant response rating, Wild oats (wild oat; [7]): 0
- Giant foxtail plant response rating (giant foxtail; [1]): 0
- Giant foxtail plant response rating (giant foxtail; [2]): 8
- Plant response rating, Giant foxtail (giant foxtail; [3]): 9
- Plant response rating, Giant foxtail (giant foxtail; [4]): 9
- Giant foxtail plant response rating (giant foxtail; [5]): 10
- Giant foxtail plant response rating (0 to 10 scale) (giant foxtail; Preemergence, Rate 250 g/ha): 10
- Giant foxtail plant response rating (giant foxtail; [6]): 10
- Plant response rating, Giant foxtail (giant foxtail; [7]): 9
- Velvetleaf plant response rating (velvetleaf; [1]): 0
- Velvetleaf plant response rating (velvetleaf; [2]): 0
- Plant response rating, Velvetleaf (velvetleaf; [3]): 3
- Plant response rating, Velvetleaf (velvetleaf; [4]): 0
- Velvetleaf plant response rating (velvetleaf; [5]): 0
- Velvetleaf plant response rating (0 to 10 scale) (velvetleaf; Preemergence, Rate 250 g/ha): 2
- Velvetleaf plant response rating (velvetleaf; [6]): 5
- Plant response rating, Velvetleaf (velvetleaf; [7]): 0
